Results published in US20230085307A1, “PYRIDAZINONE COMPOUND AND HERBICIDE” (NISSAN CHEMICAL CORPORATION, priority 2019, published 2023).

What was measured:
chickweed [1] = test: Test Example 5: herbicidal effect by foliage application, plastic box (Table 20, symbol P); assay type: in vivo, common chickweed (Stellaria media); details: foliage application, 320 g/ha, evaluated three weeks after application
Method in brief: (§1)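 Sow seeds spot-wise in sterilized diluvial soil; cover with ~1.5 cm soil. Grow 14 days in greenhouse, 25° C. to 30° C. Spray foliage with emulsion diluted to predetermined amount. Rate effect after 3 weeks.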

green foxtail [2] = test: Test Example 5: herbicidal effect by foliage application, plastic box (Table 20, symbol G); assay type: in vivo, green foxtail (Setaria viridis); details: foliage application, 320 g/ha, evaluated three weeks after application
Method in brief: as §1

windgrass [3] = test: Test Example 5: herbicidal effect by foliage application, plastic box (Table 20, symbol L); assay type: in vivo, windgrass (Apera spica-venti); details: foliage application, 320 g/ha, evaluated three weeks after application
Method in brief: as §1

velvetleaf [4] = test: Test Example 4: herbicidal effect by soil treatment (Table 19, symbol M); assay type: in vivo, velvetleaf (Abutilon theophrasti); details: amount of applied herbicide 320 g/ha
Method in brief: (§2)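 Applied as a water-diluted emulsion, the compound was sprayed onto soil covering newly sown seeds. Evaluation came three weeks after application, in a greenhouse held at 25° C. to 30° C.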

wild oat [5] = test: Test Example 5: herbicidal effect by foliage application, plastic box (Table 20, symbol I); assay type: in vivo, wild oat (Avena fatua); details: foliage application, 320 g/ha, evaluated three weeks after application
Method in brief: as §1

southern crabgrass [6] = test: Test Example 5: herbicidal effect by foliage application, plastic box (Table 20, symbol F); assay type: in vivo, southern crabgrass (Digitaria ciliaris); details: foliage application, 320 g/ha, evaluated three weeks after application
Method in brief: as §1

southern crabgrass [7] = test: Test Example 4: herbicidal effect by soil treatment (Table 19, symbol F); assay type: in vivo, southern crabgrass (Digitaria ciliaris); details: amount of applied herbicide 320 g/ha
Method in brief: as §2

lambsquarters [8] = test: Test Example 5: herbicidal effect by foliage application, plastic box (Table 20, symbol O); assay type: in vivo, lambsquarters (Chenopodium album); details: foliage application, 320 g/ha, evaluated three weeks after application
Method in brief: as §1

late watergrass = test: Test Example 1: herbicidal activity, application before weed generation under submerged conditions (Table 16, symbol A); assay type: in vivo, late watergrass (Echinochloa oryzicola); details: 320 g/ha applied herbicide
Method in brief: (§3)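 Emulsion formulation, water-diluted to set dose, was put onto the flooded surface (4 cm depth, alluvial soil) the same day weeds were sown and 2.5-leaf rice transplanted. After 3 weeks at 25-30 °C under glass, each species was rated 0 (≤5% kill) to 5 (≥90% kill).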

barnyard grass [9] = test: Test Example 5: herbicidal effect by foliage application, plastic box (Table 20, symbol H); assay type: in vivo, barnyard grass (Echinochloa crus-galli); details: foliage application, 320 g/ha, evaluated three weeks after application
Method in brief: as §1

persian speedwell [10] = test: Test Example 4: herbicidal effect by soil treatment (Table 19, symbol R); assay type: in vivo, Persian speedwell (Veronica persica); details: amount of applied herbicide 320 g/ha
Method in brief: as §2

persian speedwell [11] = test: Test Example 5: herbicidal effect by foliage application, plastic box (Table 20, symbol R); assay type: in vivo, Persian speedwell (Veronica persica); details: foliage application, 320 g/ha, evaluated three weeks after application
Method in brief: as §1

Italian ryegrass [12] = test: Test Example 4: herbicidal effect by soil treatment (Table 19, symbol K); assay type: in vivo, Italian ryegrass (Lolium multiflorum); details: amount of applied herbicide 320 g/ha
Method in brief: as §2

false cleavers = test: Test Example 4: herbicidal effect by soil treatment (Table 19, symbol Q); assay type: in vivo, false cleavers (Galium spurium); details: amount of applied herbicide 320 g/ha
Method in brief: as §2

barnyard grass [13] = test: Test Example 4: herbicidal effect by soil treatment (Table 19, symbol H); assay type: in vivo, barnyard grass (Echinochloa crus-galli); details: amount of applied herbicide 320 g/ha
Method in brief: as §2

oval-leafed pondweed = test: Test Example 1: herbicidal activity, application before weed generation under submerged conditions (Table 16, symbol C); assay type: in vivo, oval-leafed pondweed (Monochoria vaginalis); details: 320 g/ha applied herbicide
Method in brief: as §3

Chinese sprangletop = test: Test Example 3: herbicidal effect by foliage application, Wagner pot (Table 18, symbol D); assay type: in vivo, chinese sprangletop (Leptochloa chinensis); details: amount of applied herbicide 320 g/ha
Method in brief: (§4)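 Plants were sown in alluvial soil held under 0.1–0.5 cm standing water and grown 14 days in a greenhouse at 25–30 °C. An emulsifiable formulation, water-diluted to the set dose, was then sprayed onto the foliage, and effects were scored three weeks later using previously defined criteria.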

barnyard grass [14] = test: Test Example 3: herbicidal effect by foliage application, Wagner pot (Table 18, symbol H); assay type: in vivo, barnyard grass (Echinochloa crus-galli); details: amount of applied herbicide 320 g/ha
Method in brief: as §4

rice flat sedge = test: Test Example 3: herbicidal effect by foliage application, Wagner pot (Table 18, symbol E); assay type: in vivo, rice flat sedge (Cyperus iria); details: amount of applied herbicide 320 g/ha
Method in brief: as §4

chickweed [15] = test: Test Example 4: herbicidal effect by soil treatment (Table 19, symbol P); assay type: in vivo, common chickweed (Stellaria media); details: amount of applied herbicide 320 g/ha
Method in brief: as §2

Italian ryegrass [16] = test: Test Example 5: herbicidal effect by foliage application, plastic box (Table 20, symbol K); assay type: in vivo, Italian ryegrass (Lolium multiflorum); details: foliage application, 320 g/ha, evaluated three weeks after application
Method in brief: as §1

wild oat [17] = test: Test Example 4: herbicidal effect by soil treatment (Table 19, symbol I); assay type: in vivo, wild oat (Avena fatua); details: amount of applied herbicide 320 g/ha
Method in brief: as §2

green foxtail [18] = test: Test Example 4: herbicidal effect by soil treatment (Table 19, symbol G); assay type: in vivo, green foxtail (Setaria viridis); details: amount of applied herbicide 320 g/ha
Method in brief: as §2

blackgrass [19] = test: Test Example 4: herbicidal effect by soil treatment (Table 19, symbol J); assay type: in vivo, blackgrass (Alopecurus myosuroides); details: amount of applied herbicide 320 g/ha
Method in brief: as §2

blackgrass [20] = test: Test Example 5: herbicidal effect by foliage application, plastic box (Table 20, symbol J); assay type: in vivo, blackgrass (Alopecurus myosuroides); details: foliage application, 320 g/ha, evaluated three weeks after application
Method in brief: as §1

velvetleaf [21] = test: Test Example 5: herbicidal effect by foliage application, plastic box (Table 20, symbol M); assay type: in vivo, velvetleaf (Abutilon theophrasti); details: foliage application, 320 g/ha, evaluated three weeks after application
Method in brief: as §1

redroot pigweed [22] = test: Test Example 5: herbicidal effect by foliage application, plastic box (Table 20, symbol N); assay type: in vivo, redroot pigweed (Amaranthus retroflexus); details: foliage application, 320 g/ha, evaluated three weeks after application
Method in brief: as §1

redroot pigweed [23] = test: Test Example 4: herbicidal effect by soil treatment (Table 19, symbol N); assay type: in vivo, redroot pigweed (Amaranthus retroflexus); details: amount of applied herbicide 320 g/ha
Method in brief: as §2

Japanese bulrush = test: Test Example 1: herbicidal activity, application before weed generation under submerged conditions (Table 16, symbol B); assay type: in vivo, Japanese bulrush (Schoenoplectus juncoides); details: 320 g/ha applied herbicide
Method in brief: as §3

windgrass [24] = test: Test Example 4: herbicidal effect by soil treatment (Table 19, symbol L); assay type: in vivo, windgrass (Apera spica-venti); details: amount of applied herbicide 320 g/ha
Method in brief: as §2

lambsquarters [25] = test: Test Example 4: herbicidal effect by soil treatment (Table 19, symbol O); assay type: in vivo, lambsquarters (Chenopodium album); details: amount of applied herbicide 320 g/ha
Method in brief: as §2

COCC(=O)Nc1ccc2sc(-c3ccc(F)cc3OC)c(-c3c(O)c(C)nn(C)c3=O)c2c1 [2-179]
herbicidal effect on P: chickweed (criteria 0-5) (chickweed [1]): 5 (Herbicidal rate of 90% or more (almost completely withered)) | herbicidal effect on G: green foxtail (criteria 0-5) (green foxtail [2]): 0 (Herbicidal rate of 5% or less (almost no effect)) | herbicidal effect on L: windgrass (criteria 0-5) (windgrass [3]): 0 (Herbicidal rate of 5% or less (almost no effect)) | M: velvetleaf, herbicidal effect rating (velvetleaf [4]): 0 (Herbicidal rate of 5% or less (almost no effect)) | herbicidal effect on I: wild oat (criteria 0-5) (wild oat [5]): 0 (Herbicidal rate of 5% or less (almost no effect)) | herbicidal effect on F: southern crabgrass (criteria 0-5) (southern crabgrass [6]): 0 (Herbicidal rate of 5% or less (almost no effect)) | F: southern crabgrass, herbicidal effect rating (southern crabgrass [7]): 0 (Herbicidal rate of 5% or less (almost no effect)) | herbicidal effect on O: lambsquarters (criteria 0-5) (lambsquarters [8]): 2 (Herbicidal rate of 20% or more and less than 40%) | Herbicidal effect on A: late watergrass (grade 0-5) (late watergrass): 3 (Herbicidal rate of 40% or more and less than 70%) | herbicidal effect on H: barnyard grass (criteria 0-5) (barnyard grass [9]): 0 (Herbicidal rate of 5% or less (almost no effect)) | R: persian speedwell, herbicidal effect rating (persian speedwell [10]): 3 (Herbicidal rate of 40% or more and less than 70%) | herbicidal effect on R: persian speedwell (criteria 0-5) (persian speedwell [11]): 3 (Herbicidal rate of 40% or more and less than 70%) | K: Italian ryegrass, herbicidal effect rating (Italian ryegrass [12]): 0 (Herbicidal rate of 5% or less (almost no effect)) | Q: false cleavers, herbicidal effect rating (false cleavers): 0 (Herbicidal rate of 5% or less (almost no effect)) | H: barnyard grass, herbicidal effect rating (barnyard grass [13]): 0 (Herbicidal rate of 5% or less (almost no effect)) | Herbicidal effect on C: oval-leafed pondweed (grade 0-5) (oval-leafed pondweed): 0 (Herbicidal rate of 5% or less (almost no effect)) | herbicidal effect on D: Chinese sprangletop (Chinese sprangletop): 2 (Herbicidal rate of 20% or more and less than 40%) | herbicidal effect on H: barnyard grass (barnyard grass [14]): 2 (Herbicidal rate of 20% or more and less than 40%) | herbicidal effect on E: rice flat sedge (rice flat sedge): 4 (Herbicidal rate of 70% or more and less than 90%) | P: chickweed, herbicidal effect rating (chickweed [15]): 3 (Herbicidal rate of 40% or more and less than 70%) | herbicidal effect on K: Italian ryegrass (criteria 0-5) (Italian ryegrass [16]): 0 (Herbicidal rate of 5% or less (almost no effect)) | I: wild oat, herbicidal effect rating (wild oat [17]): 0 (Herbicidal rate of 5% or less (almost no effect)) | G: green foxtail, herbicidal effect rating (green foxtail [18]): 0 (Herbicidal rate of 5% or less (almost no effect)) | J: blackgrass, herbicidal effect rating (blackgrass [19]): 0 (Herbicidal rate of 5% or less (almost no effect)) | herbicidal effect on J: blackgrass (criteria 0-5) (blackgrass [20]): 0 (Herbicidal rate of 5% or less (almost no effect)) | herbicidal effect on M: velvetleaf (criteria 0-5) (velvetleaf [21]): 1 (Herbicidal rate of 5% or more and less than 20%) | herbicidal effect on N: redroot pigweed (criteria 0-5) (redroot pigweed [22]): 3 (Herbicidal rate of 40% or more and less than 70%) | N: redroot pigweed, herbicidal effect rating (redroot pigweed [23]): 2 (Herbicidal rate of 20% or more and less than 40%) | Herbicidal effect on B: Japanese bulrush (grade 0-5) (Japanese bulrush): 0 (Herbicidal rate of 5% or less (almost no effect)) | L: windgrass, herbicidal effect rating (windgrass [24]): 0 (Herbicidal rate of 5% or less (almost no effect)) | O: lambsquarters, herbicidal effect rating (lambsquarters [25]): 3 (Herbicidal rate of 40% or more and less than 70%)
